Structures can show the parent of a compound that is named as a salt.
Assays:
ROCK1 = ROCK1 (Homo sapiens, UniProt Q13464); test: ROCK1 kinase enzymatic activity (HTRF, STK2 substrate); type: biochemical; settings: ROCK1 kinase reacted at room temperature for 20 minutes
Source text: (§1) The kinase activity data was expressed by comparing the kinase activity of the test compound and that of the blank group (containing only DMSO), and the IC50 value was obtained by curve fitting using Prism software (GraphPad7.0).

[1] = test system: phosphorylation of myosin light chain T18/S19; test: In Cell Western for phosphorylation of myosin light chain in A7r5 cells; type: cell-based; settings: rat smooth muscle cell line A7r5, 1 hour with compound, phospho-MLC-T18/S19; read-out: cellular activity IC50
Source text: The rat smooth muscle cell line A7r5 was used, and the A7r5 cell culture conditions were DMEM containing 10% FBS. Phspho-MLC-T18/S19 specific antibody and a second detection antibody were used to detect the phosphorylation level of myosin light chain by In Cell Western. Cells treated with positive compounds were used as positive controls, while the group without compounds but with compound solvents was used as negative controls. DRAQ5 stained cell nuclei were used as internal references. GraphPad Prism 7.0 software was used, and fitting was carried out by using a non-linear regression curve with varying slopes to determine the absolute IC50 value.
On the first day, A7r5 cells were resuspended in serum-free medium and seeded into 384 wells of PDL coated transparent black plates at a density of 5000 cells per well. Serum starvation culture was performed for 4 hours, and the cells were incubated with the compound in serum-free medium for 1 hour. 50 μL of 8% PFA (polyformaldehyde) was added to each well and fixed at room temperature for 1 hour. The liquid in the wells was discard and 90 μL of ice methanol was added to each well to permeabilize the cells at 4° C. for 1 hour. Then, PBST (0.1% Tween20-PBS) was added using an automatic separator to wash three times. After patting the plate for drying, 50 μL blocking solution was added to each well for sealing at room temperature for 1 hour. The phspho-MLC-T18/S19 specific antibody was diluted with the blocking solution at a ratio of 1:200. After adding 20 μL to each well, incubation was carried out overnight at 4° C. with a sealed film.
On the second day, the liquid in the wells was discarded and PBST was added using an automatic separator to wash the plate 5 times. After patting the plate for drying, the second detection antibody was diluted with blocking solution at a ratio of 1:800 and DRAQ5 at a ratio of 1:1000. After adding 20 μL to each well, incubation was carried out at room temperature for 1 hour. Then, the liquid in the wells was discarded and PBST was added using an automatic separator to wash the plate 3 times, followed by adding ddH2O to wash the plate 3 times. After patting the plate for drying, it was scanned using a LICOR Odyssey near-infrared imaging scanner.

ROCK2 = ROCK2 (Homo sapiens, UniProt O75116); test: ROCK2 kinase enzymatic activity (HTRF, STK2 substrate); type: biochemical; settings: ROCK2 kinase reacted at room temperature for 30 minutes
Source text: as §1

Sequence of ROCK2 (O75116 whole entry): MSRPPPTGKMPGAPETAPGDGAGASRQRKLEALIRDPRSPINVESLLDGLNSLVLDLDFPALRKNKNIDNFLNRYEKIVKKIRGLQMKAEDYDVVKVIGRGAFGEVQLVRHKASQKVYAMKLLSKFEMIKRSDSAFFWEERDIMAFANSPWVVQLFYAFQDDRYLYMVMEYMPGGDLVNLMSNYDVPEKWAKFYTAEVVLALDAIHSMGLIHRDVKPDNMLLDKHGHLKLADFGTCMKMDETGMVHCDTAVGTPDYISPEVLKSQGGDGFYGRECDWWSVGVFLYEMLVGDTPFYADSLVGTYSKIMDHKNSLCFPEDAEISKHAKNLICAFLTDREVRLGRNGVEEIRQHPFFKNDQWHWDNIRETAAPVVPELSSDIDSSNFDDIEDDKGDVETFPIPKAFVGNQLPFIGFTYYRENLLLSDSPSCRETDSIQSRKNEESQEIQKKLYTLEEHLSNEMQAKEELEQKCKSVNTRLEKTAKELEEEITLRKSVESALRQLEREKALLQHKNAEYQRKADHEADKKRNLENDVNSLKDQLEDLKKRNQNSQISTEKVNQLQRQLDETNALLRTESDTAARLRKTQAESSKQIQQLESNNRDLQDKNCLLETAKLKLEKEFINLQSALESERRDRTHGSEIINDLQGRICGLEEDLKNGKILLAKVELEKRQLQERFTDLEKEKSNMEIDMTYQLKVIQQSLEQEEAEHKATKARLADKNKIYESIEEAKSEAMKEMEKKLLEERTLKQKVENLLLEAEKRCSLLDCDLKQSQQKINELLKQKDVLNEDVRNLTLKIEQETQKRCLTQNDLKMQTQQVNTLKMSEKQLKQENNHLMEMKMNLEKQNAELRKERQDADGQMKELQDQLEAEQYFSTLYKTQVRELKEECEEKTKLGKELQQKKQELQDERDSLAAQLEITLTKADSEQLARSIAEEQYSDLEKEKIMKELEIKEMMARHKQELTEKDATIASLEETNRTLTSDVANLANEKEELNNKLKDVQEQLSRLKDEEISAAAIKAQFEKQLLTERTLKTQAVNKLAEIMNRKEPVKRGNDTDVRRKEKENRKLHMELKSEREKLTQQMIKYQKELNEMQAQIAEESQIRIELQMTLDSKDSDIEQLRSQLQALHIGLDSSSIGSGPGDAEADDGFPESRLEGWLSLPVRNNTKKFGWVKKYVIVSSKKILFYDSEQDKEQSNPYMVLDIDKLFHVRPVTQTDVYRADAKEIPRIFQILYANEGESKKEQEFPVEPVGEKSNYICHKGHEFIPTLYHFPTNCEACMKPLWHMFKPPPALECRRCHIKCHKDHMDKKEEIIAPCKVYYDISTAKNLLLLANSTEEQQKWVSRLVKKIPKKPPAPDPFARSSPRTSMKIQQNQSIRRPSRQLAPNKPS
Sequence of ROCK1 (Q13464 whole entry): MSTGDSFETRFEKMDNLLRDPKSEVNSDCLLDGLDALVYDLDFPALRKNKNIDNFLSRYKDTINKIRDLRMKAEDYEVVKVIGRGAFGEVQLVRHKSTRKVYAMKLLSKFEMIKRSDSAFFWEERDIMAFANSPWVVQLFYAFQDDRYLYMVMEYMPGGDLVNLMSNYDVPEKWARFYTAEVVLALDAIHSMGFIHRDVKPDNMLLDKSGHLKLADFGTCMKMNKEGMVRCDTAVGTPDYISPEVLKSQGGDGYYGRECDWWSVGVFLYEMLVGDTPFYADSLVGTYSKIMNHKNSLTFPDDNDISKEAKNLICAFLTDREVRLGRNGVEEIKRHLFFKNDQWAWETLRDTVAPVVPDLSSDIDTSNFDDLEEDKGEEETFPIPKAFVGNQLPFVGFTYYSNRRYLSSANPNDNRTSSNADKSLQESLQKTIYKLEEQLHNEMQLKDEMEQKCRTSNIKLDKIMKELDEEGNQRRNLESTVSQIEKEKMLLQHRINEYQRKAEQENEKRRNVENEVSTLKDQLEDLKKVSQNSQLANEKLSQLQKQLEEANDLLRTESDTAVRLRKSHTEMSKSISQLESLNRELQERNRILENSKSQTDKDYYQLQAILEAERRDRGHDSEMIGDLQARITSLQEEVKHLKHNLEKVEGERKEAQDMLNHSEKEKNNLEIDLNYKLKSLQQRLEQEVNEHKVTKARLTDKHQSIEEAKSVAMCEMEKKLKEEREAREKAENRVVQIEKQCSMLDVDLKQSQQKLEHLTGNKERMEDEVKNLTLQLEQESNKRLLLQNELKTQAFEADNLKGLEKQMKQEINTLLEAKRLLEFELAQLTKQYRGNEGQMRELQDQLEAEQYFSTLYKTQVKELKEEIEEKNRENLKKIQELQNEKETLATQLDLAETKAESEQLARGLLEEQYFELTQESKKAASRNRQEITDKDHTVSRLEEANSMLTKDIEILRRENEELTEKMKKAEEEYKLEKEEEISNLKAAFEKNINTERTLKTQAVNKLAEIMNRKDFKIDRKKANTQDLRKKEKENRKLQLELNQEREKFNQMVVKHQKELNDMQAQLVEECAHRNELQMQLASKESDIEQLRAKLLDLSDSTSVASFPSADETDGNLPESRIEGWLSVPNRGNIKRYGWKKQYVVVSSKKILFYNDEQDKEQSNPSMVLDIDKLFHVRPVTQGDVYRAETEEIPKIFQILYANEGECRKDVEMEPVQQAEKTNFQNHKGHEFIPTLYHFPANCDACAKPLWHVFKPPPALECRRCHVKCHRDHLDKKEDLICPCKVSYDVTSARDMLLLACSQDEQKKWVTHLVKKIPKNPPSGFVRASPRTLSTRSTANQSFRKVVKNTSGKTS

Compound | IC50 (ROCK1) [nM] | IC50 [1] [nM] | IC50 (ROCK2) [nM]
CN=S(C)(=O)N1CC(CC#N)(n2cc(-c3ncnc4[nH]ccc34)c(N)n2)C1 (stereo not shown) [Example 37, 2-(3-(3-amino-4-(7H-pyrrolo[2,3-d]pyrimidin-4-yl)-1H-pyrazol-1-yl)-1-(N,S-dimethylsulfonylimino)azetidine-3-yl)acetonitrile] | < 50 | 1590 | < 50
N#CCC1(n2cc(-c3ncnc4[nH]ccc34)c(N)n2)CN(C(=O)[C@@H]2CC2(F)F)C1 [Example 34, (S)-2-(3-(3-amino-4-(7H-pyrrolo[2,3-d]pyrimidin-4-yl)-1H-pyrazol-1-yl)-1-(2,2-difluorocyclopropane-1-carbonyl)azetidine-3-yl)acetonitrile] | < 10 | 551 | < 10
Cn1cc(Nc2cc(-c3cn(C4(CC#N)CN(S(C)(=O)=O)C4)nc3N)ncn2)cn1 [Example 69] | > 100 | > 10000 | > 100
N#CCC1(n2cc(-c3ncnc4[nH]ccc34)c(N)n2)CN(S(=O)(=O)CC(F)(F)F)C1 [Example 1, 2-(3-(3-amino-4-(7-H-pyrrolo[2,3-d]pyrimidin-4-yl)-1H-pyrazol-1-yl)-1-((2,2,2-trifluoroethyl)sulfonyl)azetidine-3-yl)acetonitrile] | < 10 | 5010 | < 10
N#CCNS(=O)(=O)N1CC(CC#N)(n2cc(-c3ncnc4[nH]ccc34)c(N)n2)C1 [Example 50, 3-(3-amino-4-(7H-pyrrolo[2,3-d]pyrimidin-4-yl)-1H-pyrazol-1-yl)-N,3-bis(cyanomethyl)azetidine-1-sulfonamide] | < 10 | 98 | < 10
CCNS(=O)(=O)N1CC(CC#N)(n2cc(-c3ncnc4[nH]ccc34)c(N)n2)C1 [Example 41, 3-(3-amino-4-(7H-pyrrolo[2,3-d]pyrimidin-4-yl)-1H-pyrazol-1-yl)-3-(cyanomethyl)-N-ethylazetidine-1-sulfonamide] | < 10 | 91 | < 10
N#CCC1(n2cc(-c3ncnc4[nH]ccc34)c(N)n2)CN(C(=O)[C@@H]2C[C@H]2C#N)C1 [Example 35, (1R, 2R)-2-(3-(3-amino-4-(7H-pyrrolo[2,3-d]pyrimidin-4-yl)-1H-pyrazol-1-yl)-3-(cyanomethyl)azetidine-1-carbonyl)cyclopropane-1-nitrile] | < 10 | – | < 10
CNS(=O)(=O)N1CC(CC#N)(n2cc(-c3ncnc4[nH]ccc34)c(N)n2)C1 [Example 49, 3-(3-amino-4-(7H-pyrrolo[2,3-d]pyrimidin-4-yl)-1H-pyrazol-1-yl)-3-(cyanomethyl)-N-methylazetidine-1-sulfonamide] | < 10 | – | < 10
N#CCC1(n2cc(-c3ncnc4[nH]ccc34)c(N)n2)CN(C(=O)C2(C(F)(F)F)CC2)C1 [Example 25, 2-(3-(3-amino-4-(7H-pyrrolo[2,3-d]pyrimidin-4-yl)-1H-pyrazol-1-yl)-1-(1-(trifluoromethyl)cyclopropane-1-carbonyl)azetidine-3-yl)acetonitrile] | < 10 | – | < 10
CN(C)CCNS(=O)(=O)N1CC(CC#N)(n2cc(-c3ncnc4[nH]ccc34)c(N)n2)C1 [Example 52, 3-(3-amino-4-(7H-pyrrolo[2,3-d]pyrimidin-4-yl)-1H-pyrazol-1-yl)-3-(cyanomethyl)-N-(2-(dimethylamino)ethyl)azetidine-1-sulfonamide] | < 10 | – | < 10
Cc1ccc(C(=O)OCc2ccc([C@@H](CN)C(=O)Nc3ccc4cnccc4c3)cc2)c(C)c1 [Netarsudil, reference compound] | – | 288 | –
N#CCC1(n2cc(-c3ncnc4[nH]ccc34)c(N)n2)CN(C(=O)C2CC2)C1 [Example 22, 2-(3-(3-amino-4-(7H-pyrrolo[2,3-d]pyrimidin-4-yl)-1H-pyrazol-1-yl)-1-(cyclopropanecarbonyl)azetidine-3-yl)acetonitrile] | < 50 | – | < 50
CS(=O)(=O)N1CC(CC#N)(n2cc(-c3ncnc(NC4CCOCC4)n3)c(N)n2)C1 [Example 72, 2-(3-(3-amino-4-(4-((tetrahydro-2H-pyran-4-yl)amino)-1,3,5-triazin-2-yl)-1H-pyrazol-1-yl)-1-(methylsulfonyl)azetidine-3-yl)acetonitrile] | > 100 | – | > 100
CNc1cc(-c2cn(C3(CC#N)CN(S(C)(=O)=O)C3)nc2N)ncn1 [Example 77, 2-(3-(3-amino-4-(6-(methylamino)pyrimidin-4-yl)-1H-pyrazol-1-yl)-1-(methylsulfonyl)azetidine-3-yl)acetonitrile] | > 100 | – | > 100

More lines, now with the values ahead:

IC50 (ROCK1) [nM] | IC50 [1] [nM] | IC50 (ROCK2) [nM] | Compound
< 5 | 132 | < 5 | CN(C)CCNc1nn(C2(CC#N)CN(S(=O)(=O)C(F)(F)F)C2)cc1-c1ncnc2[nH]ccc12 [Example 7, 2-(3-(3-((2-(dimethylamino)ethyl)amino)-4-(7H-pyrrolo[2,3-d]pyrimidin-4-yl)-1H-pyrazol-1-yl)-1-((trifluoromethyl)sulfonyl)azetidine-3-yl)acetonitrile]
< 10 | 1570 | < 10 | N#CCC1(n2cc(-c3ncnc4[nH]ccc34)c(N)n2)CN(S(=O)(=O)NCC(F)(F)F)C1 [Example 40, 3-(3-amino-4-(7H-pyrrolo[2,3-d]pyrimidin-4-yl)-1H-pyrazol-1-yl)-3-(cyanomethyl)-N-(2,2,2-trifluoroethyl)azetidine-1l-sulfonamide]
< 5 | 826 | < 5 | C[C@@H](N)CS(=O)(=O)N1CC(CC#N)(n2cc(-c3ncnc4[nH]ccc34)c(N)n2)C1 [Example 88, (R)-2-(3-(3-amino-4-(7H-pyrrolo[2,3-d]pyrimidin-4-yl)-1H-pyrazol-1-yl)-1-((2-aminopropyl)sulfonyl)azetidine-3-yl)acetonitrile trifluoroacetate salt]
< 5 | 951 | < 5 | CC(=O)Nc1nn(C2(CC#N)CN(S(=O)(=O)C(F)(F)F)C2)cc1-c1ncnc2[nH]ccc12 [Example 5]
< 5 | 381 | < 5 | N#CCC1(n2cc(-c3ncnc4[nH]ccc34)c(N)n2)CN(C(=O)[C@H]2C[C@@H]2F)C1 [Example 31, 2-(3-(3-amino-4-(7H-pyrrolo[2,3-d]pyrimidin-4-yl)-1H-pyrazol-1-yl)-1-((1R, 2S)-2-fluorocyclopropane-1-carbonyl)azetidine-3-yl)acetonitrile]
< 5 | 152 | < 5 | CS(=O)(=O)CS(=O)(=O)N1CC(CC#N)(n2cc(-c3ncnc4[nH]ccc34)c(N)n2)C1 [Example 8]
< 5 | 4110 | < 5 | N#CCNC(=O)N1CC(CC#N)(n2cc(-c3ncnc4[nH]ccc34)c(N)n2)C1 [Example 18, 3-(3-amino-4-(7H-pyrrolo[2,3-d]pyrimidin-4-yl)-1H-pyrazol-1-yl)-N,3-bis(cyanomethyl)azetidine-1-formamide]
< 5 | 178 | < 5 | CS(=O)(=O)N1CCC(CC#N)(n2cc(-c3ncnc4[nH]ccc34)c(N)n2)C1 (stereo not shown) [Example 3, 2-(3-(3-amino-4-(7H-pyrrolo[2,3-d]pyrimidin-4-yl)-1H-pyrazol-1-yl)-1-(methylsulfonyl)pyrrolidin-3-yl)acetonitrile]
< 5 | 3130 | < 5 | CCS(=N)(=O)N1CC(CC#N)(n2cc(-c3ncnc4[nH]ccc34)c(N)n2)C1 (stereo not shown) [Example 38, 2-(3-(3-amino-4-(7H-pyrrolo[2,3-d]pyrimidin-4-yl)-1H-pyrazol-1-yl)-1-(ethylsulfonylimino)azetidine-3-yl)acetonitrile]
< 5 | 11 | < 5 | N#CCC1(n2cc(-c3ncnc4[nH]ccc34)c(N)n2)CN(S(=O)(=O)C(F)(F)F)C1 [Example 2, 2-(3-(3-amino-4-(7H-pyrrolo[2,3-d]pyrimidin-4-yl)-1H-pyrazol-1-yl)-1-((trifluoromethyl)sulfonyl)azetidine-3-yl)acetonitrile]
< 5 | – | < 5 | N#CCC1(n2cc(-c3ncnc4[nH]ccc34)c(N)n2)CN(S(=O)(=O)N2CC2)C1 [Example 47, 2-(3-(3-amino-4-(7H-pyrrolo[2,3-d]pyrimidin-4-yl)-1H-pyrazol-1-yl)-1-(aziridin-1-ylsulfonyl)azetidine-3-yl)acetonitrile]
< 5 | – | < 10 | N#CCC1(n2cc(-c3ncnc4[nH]ccc34)c(N)n2)CN(C(=O)CC(F)(F)F)C1 [Example 30]

Reference: patent US20260224571A1, “AZACYCLOALKANE COMPOUND AND PHARMACEUTICAL COMPOSITION, AND USE THEREOF” (Prime Gene Therapeutics Co., Ltd., priority 2023, published 2026)
